Converted amounts (≈) assume the structure as drawn.

Assay type in all cases: functional
For assay [1], the system named is Klebsiella pneumoniae. Kind of assay: Tested in vitro for antimicrobial activity against Klebsiella pneumoniae MB 4005; value ranges from 32-64 ug/mL.
For assay [2], the system named is Escherichia coli. The assay is described as follows: Tested in vitro for antimicrobial activity against Escherichia coli MB 2884; value ranges from 32-64 ug/mL.
For assay [3], the system named is Haemophilus influenzae. Kind of assay: Tested in vitro for antimicrobial activity against Haemophilus influenzae MB 5363; value ranges from 4-8 ug/mL.
The test system of assay [4] is Staphylococcus aureus. The assay is described as follows: Tested in vitro for antimicrobial activity against Staphylococcus aureus MB 2865; value ranges from 0.25-0.5 ug/mL.
Assay [5] deals with Enterobacter cloacae. Kind of assay: Tested in vitro for antimicrobial activity against Enterobacter cloacae CL 4298; value ranges from 32-64 ug/mL.
Assay [6] has as its system Streptococcus pyogenes. The assay is described as follows: Tested in vitro for antimicrobial activity against Streptococcus pyogenes MB 2874; value ranges from 0.03-0.06 ug/mL.
Assay [7] deals with Staphylococcus haemolyticus. The assay is described as follows: Tested in vitro for antimicrobial activity against Staphylococcus haemolyticus MB 5412.
Assay [8] deals with Streptococcus pyogenes. Kind of assay: Tested in vitro for antimicrobial activity against inducibly macrolide resistant Streptococcus pyogenes MB 5406.
For assay [9], the system named is Enterococcus faecalis. The assay is described as follows: Tested in vitro for antimicrobial activity against Enterococcus faecalis MB 5407; value ranges from 1-2 ug/mL.
The subject of assay [10] is Streptococcus pyogenes. Kind of assay: Tested in vitro for antimicrobial activity against constitutively macrolide resistant Streptococcus pyogenes MB 5403.
Assay [11] relates to Staphylococcus haemolyticus. The assay is described as follows: Tested in vitro for antimicrobial activity against Staphylococcus haemolyticus MB 5412; value ranges from 0.125-0.25 ug/mL.
Assay [12] relates to Streptococcus pyogenes. The assay is described as follows: Tested in vitro for antimicrobial activity against inducibly macrolide resistant Streptococcus pyogenes MB 5406; value ranges from 8-16 ug/mL.
For assay [13], the system named is Klebsiella pneumoniae. Kind of assay: Tested in vitro for antimicrobial activity against Klebsiella pneumoniae MB 4005; value ranges from 2-4 ug/mL.
Assay [14] concerns Haemophilus influenzae. The assay is described as follows: Tested in vitro for antimicrobial activity against Haemophilus influenzae MB 5363; value ranges from 2-4 ug/mL.
For assay [15], the system named is Escherichia coli. Kind of assay: Tested in vitro for antimicrobial activity against Escherichia coli MB 2884; value ranges from 2-4 ug/mL.
The subject of assay [16] is Enterococcus faecalis. The assay is described as follows: Tested in vitro for antimicrobial activity against Enterococcus faecalis MB 5407; value ranges from 2-4 ug/mL.
The subject of assay [17] is Enterobacter cloacae. The assay is described as follows: Tested in vitro for antimicrobial activity against Enterobacter cloacae CL 4298; value ranges from 2-4 ug/mL.
In assay [18] the test system is Staphylococcus aureus. Kind of assay: Tested in vitro for antimicrobial activity against Staphylococcus aureus MB 2865; value ranges from 0.25-1 ug/mL.
Assay [19] has as its system Escherichia coli. Kind of assay: Tested in vitro for antimicrobial activity against Escherichia coli MB 2884.
Assay [20] deals with Staphylococcus haemolyticus. Kind of assay: Tested in vitro for antimicrobial activity against Staphylococcus haemolyticus MB 5412; value ranges from 0.25-0.5 ug/mL.
Assay [21] has as its system Enterococcus faecalis. Kind of assay: Tested in vitro for antimicrobial activity against Enterococcus faecalis MB 5407; value ranges from 4-8 ug/mL.
The test system of assay [22] is Staphylococcus aureus. Kind of assay: Tested in vitro for antimicrobial activity against Staphylococcus aureus MB 2865.
For assay [23], the system named is Streptococcus pyogenes. Kind of assay: Tested in vitro for antimicrobial activity against inducibly macrolide resistant Streptococcus pyogenes MB 5406; value ranges from 16-32 ug/mL.
In assay [24] the test system is Enterobacter cloacae. The assay is described as follows: Tested in vitro for antimicrobial activity against Enterobacter cloacae CL 4298.
Assay [25] concerns Streptococcus pyogenes. Kind of assay: Tested in vitro for antimicrobial activity against Streptococcus pyogenes MB 2874; value ranges from 1-4 ug/mL.
Assay [26] relates to Haemophilus influenzae. The assay is described as follows: Tested in vitro for antimicrobial activity against Haemophilus influenzae MB 5363; value ranges from 32->128 ug/mL.
The subject of assay [27] is Staphylococcus aureus. The assay is described as follows: Tested in vitro for antimicrobial activity against Staphylococcus aureus MB 2865; value ranges from 16-64 ug/mL.
Assay [28] relates to Klebsiella pneumoniae. The assay is described as follows: Tested in vitro for antimicrobial activity against Klebsiella pneumoniae MB 4005; value ranges from 64->128 ug/mL.
Assay [29] relates to Enterobacter cloacae. Kind of assay: Tested in vitro for antimicrobial activity against Enterobacter cloacae CL 4298; value ranges from 64->128 ug/mL.
The test system of assay [30] is Escherichia coli. Kind of assay: Tested in vitro for antimicrobial activity against Escherichia coli MB 2884; value ranges from 64->128 ug/mL.
Assay [31] concerns Enterococcus faecalis. Kind of assay: Tested in vitro for antimicrobial activity against Enterococcus faecalis MB 5407; value ranges from 64-128 ug/mL.
The subject of assay [32] is Staphylococcus haemolyticus. The assay is described as follows: Tested in vitro for antimicrobial activity against Staphylococcus haemolyticus MB 5412; value ranges from 8-32 ug/mL.
In assay [33] the test system is Staphylococcus aureus. The assay is described as follows: Tested in vitro for antimicrobial activity against Staphylococcus aureus MB 2865; value ranges from 2-4 ug/mL.
Assay [34] concerns Klebsiella pneumoniae. The assay is described as follows: Tested in vitro for antimicrobial activity against Klebsiella pneumoniae MB 4005.
Assay [35] has as its system Escherichia coli. The assay is described as follows: Tested in vitro for antimicrobial activity against Escherichia coli MB 2884; value ranges from 8-16 ug/mL.
The test system of assay [36] is Enterobacter cloacae. Kind of assay: Tested in vitro for antimicrobial activity against Enterobacter cloacae CL 4298; value ranges from 4-8 ug/mL.
In assay [37] the test system is Staphylococcus haemolyticus. The assay is described as follows: Tested in vitro for antimicrobial activity against Staphylococcus haemolyticus MB 5412; value ranges from 0.5-1 ug/mL.
For assay [38], the system named is Enterobacter cloacae. The assay is described as follows: Tested in vitro for antimicrobial activity against Enterobacter cloacae CL 4298; value ranges from 0.5-2 ug/mL.
The test system of assay [39] is Haemophilus influenzae. Kind of assay: Tested in vitro for antimicrobial activity against Haemophilus influenzae MB 5363; value ranges from 1-4 ug/mL.
In assay [40] the test system is Escherichia coli. Kind of assay: Tested in vitro for antimicrobial activity against Escherichia coli MB 2884; value ranges from 1-2 ug/mL.
The test system of assay [41] is Staphylococcus aureus. Kind of assay: Tested in vitro for antimicrobial activity against Staphylococcus aureus MB 2865; value ranges from 0.5-1 ug/mL.
Assay [42] has as its system Klebsiella pneumoniae. The assay is described as follows: Tested in vitro for antimicrobial activity against Klebsiella pneumoniae MB 4005; value ranges from 1-2 ug/mL.

As to `CC[C@H]1OC(=O)[C@H](C)[C@@H](O[C@H]2C[C@@](C)(OC)[C@@H](O)[C@H](C)O2)[C@H](C)[C@@H](O[C@@H]2O[C@H](C)C[C@H](N(C)C)[C@H]2O)[C@](C)(O)C[C@@H](C)C(=O)[C@H](C)[C@@H](O)[C@]1(C)O` [ERYTHROMYCIN], the MIC amounted to 32 µg/mL (≈ 43.6 µM) in the assay on Klebsiella pneumoniae [1]; 32 µg/mL (≈ 43.6 µM) against Escherichia coli [2]; 4 µg/mL (≈ 5.45 µM) in the assay on Haemophilus influenzae [3]; 0.25 µg/mL (≈ 0.341 µM) against Staphylococcus aureus [4]; 32 µg/mL (≈ 43.6 µM) in the assay on Enterobacter cloacae [5]; 0.03 µg/mL (≈ 0.0409 µM) in the assay on Streptococcus pyogenes [6]. In addition, the MIC is 0.125 µg/mL (≈ 0.17 µM) in assay [7], 32 µg/mL (≈ 43.6 µM) against Streptococcus pyogenes [8], 1 µg/mL (≈ 1.36 µM) against Enterococcus faecalis [9] and above 128 µg/mL with Streptococcus pyogenes [10].
As for `CC[C@H]1OC(=O)[C@H](C)[C@@H](O[C@H]2C[C@@](C)(OC)[C@@H](O)[C@H](C)O2)[C@H](C)[C@@H](O[C@@H]2O[C@H](C)C[C@H](N(C)C)[C@H]2O)[C@](C)(O)C[C@@H](C)N(C)C[C@@H](C)C[C@]1(C)O`, the MIC in assay [11] came out at 0.125 µg/mL (≈ 0.171 µM); against Streptococcus pyogenes [12], 8 µg/mL (≈ 10.9 µM); against Klebsiella pneumoniae [13] it was 2 µg/mL (≈ 2.73 µM); in the assay on Haemophilus influenzae [14] it was 2 µg/mL (≈ 2.73 µM); against Streptococcus pyogenes [6], 0.03 µg/mL (≈ 0.0409 µM); in the assay with Escherichia coli [15], 2 µg/mL (≈ 2.73 µM). Besides, the MIC against Enterococcus faecalis [16] was 2 µg/mL (≈ 2.73 µM); in the assay with Streptococcus pyogenes [10], above 128 µg/mL; against Enterobacter cloacae [17], 2 µg/mL (≈ 2.73 µM); against Staphylococcus aureus [18], 0.25 µg/mL (≈ 0.341 µM).
`CC[C@H]1OC(=O)[C@H](C)[C@@H](O[C@H]2C[C@@](C)(OC)[C@@H](O)[C@H](C)O2)[C@H](C)[C@@H](O[C@@H]2O[C@H](C)C[C@H](N(C)C)[C@H]2O)[C@](C)(O)C[C@@H](C)N(C)C[C@H](C)C[C@]1(C)O`: the MIC with Escherichia coli [19] came out at 4 µg/mL (≈ 5.46 µM); in assay [20] it was 0.25 µg/mL (≈ 0.341 µM); with Enterococcus faecalis [21], 4 µg/mL (≈ 5.46 µM); in the assay on Klebsiella pneumoniae [13], 2 µg/mL (≈ 2.73 µM); with Staphylococcus aureus [22], 2 µg/mL (≈ 2.73 µM); in the assay with Haemophilus influenzae [3], 4 µg/mL (≈ 5.46 µM). For the same molecule, the MIC is 16 µg/mL (≈ 21.8 µM) against Streptococcus pyogenes [23], 0.03 µg/mL (≈ 0.0409 µM) in the assay on Streptococcus pyogenes [6], above 128 µg/mL against Streptococcus pyogenes [10] and 2 µg/mL (≈ 2.73 µM) in the assay with Enterobacter cloacae [24].
With `CC[C@H]1OC(=O)[C@H](C)[C@@H](O[C@H]2C[C@@](C)(OC)[C@@H](O)[C@H](C)O2)[C@H](C)[C@@H](O[C@@H]2O[C@H](C)C[C@H](N(C)C)[C@H]2O)[C@](C)(O)C[C@@H](C)/N=C2\O[C@]1(C)C=C2C`, the MIC against Streptococcus pyogenes [25] is 1 µg/mL (≈ 1.4 µM); with Haemophilus influenzae [26], 32 µg/mL (≈ 44.9 µM); against Staphylococcus aureus [27], 16 µg/mL (≈ 22.4 µM); in the assay with Klebsiella pneumoniae [28], 64 µg/mL (≈ 89.8 µM); against Enterobacter cloacae [29], 64 µg/mL (≈ 89.8 µM); against Escherichia coli [30] it was 64 µg/mL (≈ 89.8 µM). Further, the MIC is above 128 µg/mL with Streptococcus pyogenes [8], 64 µg/mL (≈ 89.8 µM) in the assay with Enterococcus faecalis [31], above 128 µg/mL against Streptococcus pyogenes [10] and 8 µg/mL (≈ 11.2 µM) in assay [32].
Consider `CC[C@H]1OC(=O)[C@H](C)[C@@H](O[C@H]2C[C@@](C)(OC)[C@@H](O)[C@H](C)O2)[C@H](C)[C@@H](O[C@@H]2O[C@H](C)C[C@H](N(C)C)[C@H]2O)[C@](C)(O)C[C@@H](C)N(C)C/C(C)=C/[C@]1(C)O`, for which the MIC against Staphylococcus aureus [33] was 2 µg/mL (≈ 2.74 µM); against Streptococcus pyogenes [12], 8 µg/mL (≈ 10.9 µM); against Enterococcus faecalis [21], 4 µg/mL (≈ 5.47 µM); against Haemophilus influenzae [3] it was 4 µg/mL (≈ 5.47 µM); against Klebsiella pneumoniae [34], 8 µg/mL (≈ 10.9 µM); in the assay with Escherichia coli [35] it was 8 µg/mL (≈ 10.9 µM). Moreover, the MIC in the assay with Streptococcus pyogenes [6] was 0.03 µg/mL (≈ 0.041 µM); in the assay with Enterobacter cloacae [36] it was 4 µg/mL (≈ 5.47 µM); in assay [37], 0.5 µg/mL (≈ 0.684 µM); against Streptococcus pyogenes [10], above 128 µg/mL.
In the case of `CC[C@H]1OC(=O)[C@H](C)[C@@H](O[C@H]2C[C@@](C)(OC)[C@@H](O)[C@H](C)O2)[C@H](C)[C@@H](O[C@@H]2O[C@H](C)C[C@H](N(C)C)[C@H]2O)[C@](C)(O)C[C@@H](C)N(C)C[C@H](C)[C@@H](O)[C@]1(C)O` [L-701677], the MIC in [11] was 0.125 µg/mL (≈ 0.167 µM); with Enterobacter cloacae [38] it was 0.5 µg/mL (≈ 0.668 µM); in the assay on Haemophilus influenzae [39], 1 µg/mL (≈ 1.34 µM); in the assay with Streptococcus pyogenes [12] it was 8 µg/mL (≈ 10.7 µM); against Escherichia coli [40], 1 µg/mL (≈ 1.34 µM); in the assay on Streptococcus pyogenes [6], 0.03 µg/mL (≈ 0.0401 µM). Moreover, the MIC is 0.5 µg/mL (≈ 0.668 µM) against Staphylococcus aureus [41], 1 µg/mL (≈ 1.34 µM) against Klebsiella pneumoniae [42], 2 µg/mL (≈ 2.67 µM) in the assay with Enterococcus faecalis [16] and above 128 µg/mL in the assay with Streptococcus pyogenes [10].
